From ChEMBL document CHEMBL3763146 (J Med Chem, 2016)

Experiments:
[1] = system: Rhesus monkey; experiment: Unbound clearance in rhesus monkey at 0.5 mg/kg, iv or 2 mg/kg, po; assay type: ADME, organism-based, Macaca mulatta; details: in vivo
[2] = molecular target: Cytochrome P450 2C19 (Homo sapiens, UniProt P33261); experiment: Inhibition of CYP2C19 in human liver microsomes; assay type: ADME
[3] = system: Rattus norvegicus; experiment: Unbound clearance in rat at 1 mg/kg, iv or 2 mg/kg, po; assay type: ADME, organism-based; details: in vivo
[4] = Drug recovery in bile duct cannulated rat feces at 10 mg/kg, po measured over 48 hrs; assay type: ADME, organism-based; details: faeces, read-out: Drug recovery
[5] = Drug recovery in bile duct cannulated rat at 10 mg/kg, po measured over 48 hrs; assay type: ADME, organism-based; details: in vivo, read-out: Drug recovery
[6] = system: Cynomolgus monkey; experiment: Toxicity in cynomolgus monkey assessed as postmortem parameters measured up to 9 months; assay type: organism-based, Macaca fascicularis; details: in vivo
[7] = molecular target: Cytochrome P450 2D6 (Homo sapiens, UniProt P10635); experiment: Inhibition of CYP2D6 in human liver microsomes assessed as dextraomethorphan O-demethylation; assay type: ADME
[8] = Oral bioavailability in cynomolgus monkey at 2 mg/kg; assay type: ADME, organism-based, Macaca fascicularis; details: in vivo
[9] = molecular target: Beta-3 adrenergic receptor (Rattus norvegicus, UniProt P26255); experiment: Agonist activity at rat beta3 adrenergic receptor expressed in CHO cells assessed as accumulation of cAMP after 30 mins by TR-FRET assay in presence of 40% serum; assay type: functional, cell-based
[10] = Fraction unbound in rat at 1 mg/kg, iv or 2 mg/kg, po; assay type: ADME, organism-based; details: in vivo
[11] = molecular target: Cytochrome P450 3A4 (Homo sapiens, UniProt P08684); experiment: Time-dependent inhibition of CYP3A4 in human liver microsomes up to 50 uM; assay type: ADME
[12] = Drug recovery in bile duct cannulated rat urine at 5 mg/kg, iv measured over 48 hrs; assay type: ADME, organism-based; details: read-out: Drug recovery
[13] = Chemical stability of the compound under forced degradation condition; assay type: physicochemical
[14] = molecular target: Sodium-dependent serotonin transporter (Homo sapiens, UniProt P31645); experiment: Inhibition of human SERT expressed in HEK293 cells preincubated for 30 mins followed by fluorescent substrate addition measured after 30 mins by plate reader analysis; assay type: cell-based
[15] = Solubility of the compound in buffer at pH <= […]; assay type: physicochemical
[16] = Intrinsic clearance in rat liver microsomes; assay type: ADME; details: read-out: CLH
[17] = system: Cynomolgus monkey; experiment: Unbound clearance in cynomolgus monkey at 0.5 mg/kg, iv or 2 mg/kg, po; assay type: ADME, organism-based, Macaca fascicularis; details: in vivo
[18] = Oral bioavailability in dog at 2 mg/kg; assay type: ADME, organism-based, Canis lupus familiaris; details: in vivo
[19] = Drug recovery in bile duct cannulated rat feces at 5 mg/kg, iv measured over 48 hrs; assay type: ADME, organism-based; details: faeces, read-out: Drug recovery
[20] = molecular target: Cytochrome P450 2B6 (Homo sapiens, UniProt P20813); experiment: Inhibition of CYP2B6 in human liver microsomes; assay type: ADME
[21] = Half life in rat at 1 mg/kg, iv or 2 mg/kg, po; assay type: ADME, organism-based; details: in vivo
[22] = molecular target: T1, Beta-3 adrenergic receptor (Homo sapiens, UniProt P13945); experiment: Agonist activity at human adrenergic beta3 receptor expressed in CHO cells assessed as accumulation of cAMP after 30 mins by TR-FRET assay in presence of 40% serum relative to (R)-(-)-isoproterenol; assay type: functional, cell-based
Target sequence in this assay (P13945 whole entry, looked up): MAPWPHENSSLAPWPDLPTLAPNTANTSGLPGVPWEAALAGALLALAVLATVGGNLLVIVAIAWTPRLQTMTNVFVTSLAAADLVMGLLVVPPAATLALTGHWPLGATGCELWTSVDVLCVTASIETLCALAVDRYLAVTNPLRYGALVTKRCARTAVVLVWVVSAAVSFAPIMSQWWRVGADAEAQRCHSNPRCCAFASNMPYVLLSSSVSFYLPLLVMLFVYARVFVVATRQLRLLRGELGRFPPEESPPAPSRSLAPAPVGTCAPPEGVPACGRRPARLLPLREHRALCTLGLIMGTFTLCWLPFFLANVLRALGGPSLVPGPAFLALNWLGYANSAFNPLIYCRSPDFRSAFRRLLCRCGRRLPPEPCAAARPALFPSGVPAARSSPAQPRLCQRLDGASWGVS

[23] = Intrinsic clearance in dog liver microsomes; assay type: ADME, Canis lupus familiaris; details: read-out: CLH
[24] = system: Rattus norvegicus; experiment: Dose normalized fAUC in rat at 2 mg/kg, po; assay type: ADME, organism-based; details: in vivo
[25] = Stability in human plasma assessed as parent compound remaining at 24 hrs by LC-MS analysis; assay type: ADME, cell-free; details: read-out: Stability
[26] = Stability in dog plasma assessed as parent compound remaining at 24 hrs by LC-MS analysis; assay type: ADME, cell-free, Canis lupus familiaris; details: read-out: Stability
[27] = system: Rhesus monkey; experiment: Dose normalized total AUC in rhesus monkey at 2 mg/kg, po; assay type: ADME, organism-based, Macaca mulatta; details: in vivo
[28] = system: Rattus norvegicus; experiment: Increase in circulating free fatty acid level in iv infused Sprague-Dawley rat after 45 mins by liquid chromatography-tandem mass spectrometric analysis; assay type: functional
[29] = molecular target: Cytochrome P450 2C9 (Homo sapiens, UniProt P11712); experiment: Inhibition of CYP2C9 in human liver microsomes assessed as diclofenac alpha'-hydroxylation; assay type: ADME
[30] = Solubility of the compound in fasted-simulated intestinal fluid; assay type: ADME; details: fasted-state simulated intestinal fluid
[31] = molecular target: Cytochrome P450 2C8 (Homo sapiens, UniProt P10632); experiment: Inhibition of CYP2C8 in human liver microsomes; assay type: ADME
[32] = molecular target: Beta-3 adrenergic receptor (Rattus norvegicus) (UniProt P26255); experiment: Agonist activity at rat beta3 adrenergic receptor expressed in CHO cells assessed as accumulation of cAMP after 30 mins by TR-FRET assay in presence of 40% serum relative to (R)-(-)-isoproterenol; assay type: functional, cell-based
[33] = species: Rattus norvegicus; experiment: Toxicity in Sprague-Dawley rat assessed as antemortem parameters measured up to 6 months; assay type: organism-based; details: in vivo
[34] = molecular target: Cytochrome P450 1A2 (Homo sapiens, UniProt P05177); experiment: Inhibition of CYP1A2 in human liver microsomes; assay type: ADME
[35] = molecular target: Beta-3 adrenergic receptor (Macaca mulatta) (UniProt Q28524); experiment: Agonist activity at rhesus monkey beta3 adrenergic receptor expressed in CHO cells assessed as accumulation of cAMP after 30 mins by TR-FRET assay in presence of 40% serum relative to (R)-(-)-isoproterenol; assay type: functional, cell-based
[36] = molecular target: Beta-3 adrenergic receptor (Rattus norvegicus) (UniProt P26255); experiment: Agonist activity at rat beta3 adrenergic receptor expressed in CHO cells assessed as accumulation of cAMP after 30 mins by TR-FRET assay relative to (R)-(-)-isoproterenol; assay type: functional, cell-based
[37] = system: MDR1 (human); experiment: Apparent permeability of the compound in pig LLC-PK1 cells expressing human MDR1 at 5 uM measured at 3 hrs by LC/MS/MS analysis; assay type: ADME, cell-based, Sus scrofa
[38] = species: Rattus norvegicus; experiment: Toxicity in Sprague-Dawley rat assessed as postmortem parameters measured up to 6 months; assay type: organism-based; details: in vivo
[39] = Induction of phospholidosis in human HepG2 cells incubated overnight by […] in presence of fluorescent labeled phospholipid probe NBD-PE; assay type: cell-based; details: read-out: A50
[40] = system: Rattus norvegicus; experiment: Dose normalized total AUC in rat at 2 mg/kg, po; assay type: ADME, organism-based; details: in vivo
[41] = Oral bioavailability in rhesus monkey at 2 mg/kg; assay type: ADME, organism-based, Macaca mulatta; details: in vivo
[42] = molecular target: T1, Beta-3 adrenergic receptor; experiment: Agonist activity at human adrenergic beta3 receptor expressed in CHO cells assessed as accumulation of cAMP after 30 mins by TR-FRET assay in presence of 40% serum; assay type: functional, cell-based
Target sequence in this assay (P13945 whole entry): as the sequence (P13945 whole entry, looked up) above

[43] = system: Canis familiaris; experiment: Dose normalized total AUC in dog at 2 mg/kg, po; assay type: ADME, organism-based, Canis lupus familiaris; details: in vivo
[44] = Drug recovery in bile duct cannulated rat urine at 10 mg/kg, po measured over 48 hrs; assay type: ADME, organism-based; details: read-out: Drug recovery
[45] = molecular target: Beta-3 adrenergic receptor (Macaca mulatta, UniProt Q28524); experiment: Agonist activity at rhesus monkey beta3 adrenergic receptor expressed in CHO cells assessed as accumulation of cAMP after 30 mins by TR-FRET assay in presence of 40% serum; assay type: functional, cell-based
[46] = molecular target: Beta-3 adrenergic receptor (Macaca mulatta) (UniProt Q28524); experiment: Agonist activity at rhesus monkey beta3 adrenergic receptor expressed in CHO cells assessed as accumulation of cAMP after 30 mins by TR-FRET assay relative to (R)-(-)-isoproterenol; assay type: functional, cell-based
[47] = molecular target: Beta-2 adrenergic receptor (Homo sapiens, UniProt P07550)
Description: Displacement of [125]I-cyanopindolol from human recombinant beta2 adrenergic receptor after 1 hr by scintillation counting method

[48] = Fraction unbound in dog at 0.5 mg/kg, iv or 2 mg/kg, po; assay type: ADME, organism-based, Canis lupus familiaris; details: in vivo

Sequence of Beta-3 adrenergic receptor (Rattus norvegicus) (P26255 whole entry): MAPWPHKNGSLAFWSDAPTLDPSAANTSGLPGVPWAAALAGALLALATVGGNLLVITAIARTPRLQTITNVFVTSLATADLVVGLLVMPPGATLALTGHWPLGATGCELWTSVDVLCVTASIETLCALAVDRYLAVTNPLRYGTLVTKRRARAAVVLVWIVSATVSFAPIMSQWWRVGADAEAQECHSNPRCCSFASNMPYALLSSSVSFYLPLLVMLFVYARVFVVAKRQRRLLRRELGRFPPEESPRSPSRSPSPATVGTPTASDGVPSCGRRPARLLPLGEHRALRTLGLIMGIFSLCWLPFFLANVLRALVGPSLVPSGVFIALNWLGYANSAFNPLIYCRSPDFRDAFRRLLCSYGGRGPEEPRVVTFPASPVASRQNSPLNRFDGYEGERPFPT
Sequence of Beta-3 adrenergic receptor (Macaca mulatta) (Q28524 whole entry): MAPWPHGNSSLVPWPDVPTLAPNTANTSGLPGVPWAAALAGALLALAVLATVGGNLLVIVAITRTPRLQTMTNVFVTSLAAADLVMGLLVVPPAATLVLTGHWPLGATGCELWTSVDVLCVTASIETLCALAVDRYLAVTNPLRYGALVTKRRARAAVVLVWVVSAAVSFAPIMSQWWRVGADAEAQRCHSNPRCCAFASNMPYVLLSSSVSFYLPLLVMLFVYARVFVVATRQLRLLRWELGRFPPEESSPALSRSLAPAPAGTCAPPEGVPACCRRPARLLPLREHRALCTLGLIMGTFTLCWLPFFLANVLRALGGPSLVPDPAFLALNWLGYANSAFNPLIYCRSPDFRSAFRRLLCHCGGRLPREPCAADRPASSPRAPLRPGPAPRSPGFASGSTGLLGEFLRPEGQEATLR
Sequence of Cytochrome P450 2C8 (P10632 whole entry): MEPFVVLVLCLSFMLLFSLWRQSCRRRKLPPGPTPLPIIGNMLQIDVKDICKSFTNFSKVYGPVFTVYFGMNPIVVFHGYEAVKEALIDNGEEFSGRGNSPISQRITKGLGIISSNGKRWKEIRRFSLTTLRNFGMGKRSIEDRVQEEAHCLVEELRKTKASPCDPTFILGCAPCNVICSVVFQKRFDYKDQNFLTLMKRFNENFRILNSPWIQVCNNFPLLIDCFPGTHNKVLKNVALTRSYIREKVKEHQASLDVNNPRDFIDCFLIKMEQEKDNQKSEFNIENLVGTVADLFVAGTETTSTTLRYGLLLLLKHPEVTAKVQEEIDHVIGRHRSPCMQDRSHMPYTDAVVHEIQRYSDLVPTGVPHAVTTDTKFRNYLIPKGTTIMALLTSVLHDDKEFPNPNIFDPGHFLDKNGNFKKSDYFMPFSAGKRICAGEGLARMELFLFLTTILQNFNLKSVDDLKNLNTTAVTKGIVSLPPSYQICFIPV
Sequence of Cytochrome P450 1A2 (P05177 whole entry): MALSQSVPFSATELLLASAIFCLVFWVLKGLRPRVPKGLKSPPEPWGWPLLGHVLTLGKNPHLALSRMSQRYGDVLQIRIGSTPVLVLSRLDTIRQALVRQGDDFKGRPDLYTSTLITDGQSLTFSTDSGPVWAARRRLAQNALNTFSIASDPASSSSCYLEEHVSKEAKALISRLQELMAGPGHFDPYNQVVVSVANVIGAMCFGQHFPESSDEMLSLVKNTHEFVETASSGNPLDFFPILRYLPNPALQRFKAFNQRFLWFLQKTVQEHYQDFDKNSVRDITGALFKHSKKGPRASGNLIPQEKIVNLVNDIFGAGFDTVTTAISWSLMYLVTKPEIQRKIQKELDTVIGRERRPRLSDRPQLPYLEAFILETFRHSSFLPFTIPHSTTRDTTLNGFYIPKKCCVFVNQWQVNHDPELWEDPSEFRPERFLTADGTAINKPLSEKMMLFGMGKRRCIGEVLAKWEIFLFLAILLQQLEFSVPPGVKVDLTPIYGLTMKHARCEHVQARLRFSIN
Sequence of Cytochrome P450 2C19 (P33261 whole entry): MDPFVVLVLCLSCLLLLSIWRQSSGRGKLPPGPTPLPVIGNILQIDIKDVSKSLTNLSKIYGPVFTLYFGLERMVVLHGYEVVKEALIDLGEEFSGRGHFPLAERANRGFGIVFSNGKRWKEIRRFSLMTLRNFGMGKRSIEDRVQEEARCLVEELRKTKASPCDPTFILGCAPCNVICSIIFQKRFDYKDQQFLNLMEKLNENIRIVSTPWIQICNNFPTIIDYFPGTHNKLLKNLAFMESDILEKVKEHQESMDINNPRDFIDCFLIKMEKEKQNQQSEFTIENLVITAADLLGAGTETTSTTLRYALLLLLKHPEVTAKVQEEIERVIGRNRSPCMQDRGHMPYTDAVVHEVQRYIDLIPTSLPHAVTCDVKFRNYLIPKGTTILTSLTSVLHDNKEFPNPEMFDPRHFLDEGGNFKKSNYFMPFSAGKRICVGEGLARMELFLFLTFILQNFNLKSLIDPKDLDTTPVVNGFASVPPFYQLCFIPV
Sequence of Beta-3 adrenergic receptor (Rattus norvegicus, UniProt P26255) (P26255 whole entry): as the sequence (P26255 whole entry) above
Sequence of Cytochrome P450 2C9 (P11712 whole entry): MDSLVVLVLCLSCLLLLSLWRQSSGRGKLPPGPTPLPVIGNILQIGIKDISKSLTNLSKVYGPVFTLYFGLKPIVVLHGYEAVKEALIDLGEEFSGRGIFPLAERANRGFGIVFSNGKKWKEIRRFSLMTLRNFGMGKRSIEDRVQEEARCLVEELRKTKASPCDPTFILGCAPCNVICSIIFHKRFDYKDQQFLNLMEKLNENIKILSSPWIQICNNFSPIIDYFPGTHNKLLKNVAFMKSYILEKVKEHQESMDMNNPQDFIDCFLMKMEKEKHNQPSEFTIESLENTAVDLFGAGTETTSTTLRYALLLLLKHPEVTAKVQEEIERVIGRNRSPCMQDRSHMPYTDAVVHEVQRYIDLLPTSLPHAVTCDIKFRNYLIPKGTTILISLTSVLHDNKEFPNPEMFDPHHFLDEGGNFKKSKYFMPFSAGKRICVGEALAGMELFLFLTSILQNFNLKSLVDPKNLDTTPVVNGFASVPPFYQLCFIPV
Sequence of Sodium-dependent serotonin transporter (P31645 whole entry): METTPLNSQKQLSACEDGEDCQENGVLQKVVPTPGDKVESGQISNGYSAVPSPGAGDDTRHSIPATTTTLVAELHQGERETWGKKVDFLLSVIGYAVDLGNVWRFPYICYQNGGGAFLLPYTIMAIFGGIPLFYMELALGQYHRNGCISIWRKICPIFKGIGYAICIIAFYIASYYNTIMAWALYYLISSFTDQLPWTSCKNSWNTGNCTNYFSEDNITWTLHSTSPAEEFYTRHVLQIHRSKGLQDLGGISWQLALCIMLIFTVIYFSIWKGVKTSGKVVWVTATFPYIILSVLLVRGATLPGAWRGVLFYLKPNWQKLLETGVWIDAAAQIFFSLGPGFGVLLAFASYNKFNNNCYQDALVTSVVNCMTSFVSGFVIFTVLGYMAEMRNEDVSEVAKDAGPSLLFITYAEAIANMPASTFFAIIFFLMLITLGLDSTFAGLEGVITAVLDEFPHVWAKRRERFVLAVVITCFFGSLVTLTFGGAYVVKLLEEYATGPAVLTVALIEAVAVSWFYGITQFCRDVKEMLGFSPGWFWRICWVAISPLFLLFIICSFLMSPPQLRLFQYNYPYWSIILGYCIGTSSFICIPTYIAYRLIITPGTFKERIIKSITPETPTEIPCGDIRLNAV
Sequence of Beta-2 adrenergic receptor (P07550 whole entry): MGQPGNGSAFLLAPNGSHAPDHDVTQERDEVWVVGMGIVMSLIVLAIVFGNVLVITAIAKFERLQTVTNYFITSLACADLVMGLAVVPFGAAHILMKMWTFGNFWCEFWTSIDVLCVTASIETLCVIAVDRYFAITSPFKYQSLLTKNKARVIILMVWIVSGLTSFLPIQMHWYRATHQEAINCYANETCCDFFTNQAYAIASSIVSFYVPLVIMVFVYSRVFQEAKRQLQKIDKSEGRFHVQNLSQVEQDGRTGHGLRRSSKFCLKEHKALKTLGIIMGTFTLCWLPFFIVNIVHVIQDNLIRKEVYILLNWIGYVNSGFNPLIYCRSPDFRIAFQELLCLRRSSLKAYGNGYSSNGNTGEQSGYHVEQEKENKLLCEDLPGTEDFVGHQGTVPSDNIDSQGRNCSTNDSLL
Sequence of Beta-3 adrenergic receptor (Macaca mulatta, UniProt Q28524) (Q28524 whole entry): as the sequence (Q28524 whole entry) above
Sequence of Cytochrome P450 2D6 (P10635 whole entry): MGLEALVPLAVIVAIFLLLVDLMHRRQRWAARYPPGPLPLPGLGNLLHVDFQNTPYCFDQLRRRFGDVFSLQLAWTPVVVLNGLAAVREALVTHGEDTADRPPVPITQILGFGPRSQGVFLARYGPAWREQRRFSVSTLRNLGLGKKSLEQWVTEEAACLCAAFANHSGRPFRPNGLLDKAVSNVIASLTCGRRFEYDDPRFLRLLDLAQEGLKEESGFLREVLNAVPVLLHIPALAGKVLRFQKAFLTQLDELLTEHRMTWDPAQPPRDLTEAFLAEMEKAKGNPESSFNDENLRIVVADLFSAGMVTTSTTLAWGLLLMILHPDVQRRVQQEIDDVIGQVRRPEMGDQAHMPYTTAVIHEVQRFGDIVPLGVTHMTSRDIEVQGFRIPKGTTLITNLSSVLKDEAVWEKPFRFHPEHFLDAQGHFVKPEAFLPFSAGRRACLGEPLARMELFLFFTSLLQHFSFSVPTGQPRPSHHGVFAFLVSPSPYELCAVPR

O=C(Nc1ccc(C[C@@H]2CC[C@H]([C@H](O)c3ccccc3)N2)cc1)[C@@H]1CCc2nccc(=O)n21 [VIBEGRON]
CL free [1]: 33 mL/min/kg
IC50 [2]: > 100 µM
CL free [3]: 67 mL/min/kg
dose excreted at 48 h [4]: 19%
dose excreted at 48 h [5]: 87%
Activity [6]: Non-toxic
IC50 [7]: > 100 µM
bioavailability [8]: 46%
EC50 [9]: 0.122 µM
fraction unbound [10]: 0.21
TDI [11]: Not Active
dose excreted at 48 h [12]: 37%
Stability [13]: Stable
IC50 [14]: > 10 µM
solubility [15]: > 4000 µg/mL
CLint scaled [16]: 20 mL/min/kg
CL free [17]: 34 mL/min/kg
bioavailability [18]: 44%
dose excreted at 48 h [19]: 13%
IC50 [20]: > 100 µM
half-life [21]: 7 h
max activation [22]: 101%
CLint scaled [23]: 13 mL/min/kg
fAUC/dose [24]: 113 nM·h/mg/kg
remaining at 24 h [25]: 100%
remaining at 24 h [26]: 100%
AUC/dose [27]: 540 nM·h/mg/kg
Activity [28]: Dose-dependent effect
minimal effective dose ([28]; 0.75 h, read-out: MED): 0.3 mg/kg
IC50 [29]: > 100 µM
solubility [30]: > 4000 µg/mL
IC50 [31]: > 100 µM
max activation [32]: 89%
Activity [33]: Non-toxic
IC50 [34]: > 100 µM
max activation [35]: 103%
max activation [36]: 83%
Papp at 3 h, 5 µM [37]: 2.4 ×10⁻⁶ cm/s
Activity [38]: Non-toxic
AC50 [39]: > 70 µM
AUC/dose [40]: 540 nM·h/mg/kg
bioavailability [41]: 23%
EC50 [42]: 0.0016 µM
AUC/dose [43]: 1200 nM·h/mg/kg
dose excreted at 48 h [44]: 32%
EC50 [45]: 0.0071 µM
max activation [46]: 87%
IC50 [47]: > 20 µM
fraction unbound [48]: 0.41
